Test results as given in US20140249196A1, “N-BENZYLBENZIMIDAZOLE MODULATORS OF PPARG” (priority 2011, published 2014).

Tested on: PPARG
Assay: Cell-based transactivation assay (3xPPRE-luciferase reporter, COS-1 cells co-transfected with PPARG)
Parameters: species or system murine or human (not said which for the values)
Conditions: over DMSO
Description: Cell-Based Transactivation Assay: PPRE is a DNA that contains a binding site for PPARG; thus PPRE is a PPAR response element, used herein as a promoter reporter. The binding site is a DR1 response element with the sequence [NT] repeated 3 times in tandem and then fused to a construct for luciferase. Thus, PPRE is the basis of the cell based transactivation assay described below. The plasmid DNA is co-transfected along with a plasmid for PPARG into COS-1 cells. After an overnight incubation, cells are treated with DMSO or compounds. […] Transfected cells were plated in white Perkin Elmer 384-well plates and incubated 4 hours. […] After 18 hour incubation, treated cells were developed with Brite Lite Plus (Perkin Elmer) and read in 384-well Luminescence Perkin Elmer EnVision Multilabel plate reader. Graphs were plotted in triplicate in GraphPad Prism Software as fold change of treated cells over DMSO control cells.

Row | SMILES | activation of the PPRE reporter
1 | CN(CCOc1ccc(CC2SC(=O)NC2=O)cc1)c1ccccn1 (stereo not drawn) [rosiglitazone] | about 5 fold

Same assay, conditions: relative to rosiglitazone

Row | SMILES | transactivation of the reporter, % of rosiglitazone response
2 | COc1ccc(C(=O)n2c(C)c(Cc3cccc(O[C@@H](C)C(=O)O)c3)c3cc(OC(F)(F)F)ccc32)cc1 [MRL24] | about 25%

Target: T1, GST-PPARG-LBD (Homo sapiens, UniProt P37231)
T1 construct: A mixture of 5 nM GST-PPARG-LBD; purchased Invitrogen
T1 sequence (P37231 238-503 limits assumed): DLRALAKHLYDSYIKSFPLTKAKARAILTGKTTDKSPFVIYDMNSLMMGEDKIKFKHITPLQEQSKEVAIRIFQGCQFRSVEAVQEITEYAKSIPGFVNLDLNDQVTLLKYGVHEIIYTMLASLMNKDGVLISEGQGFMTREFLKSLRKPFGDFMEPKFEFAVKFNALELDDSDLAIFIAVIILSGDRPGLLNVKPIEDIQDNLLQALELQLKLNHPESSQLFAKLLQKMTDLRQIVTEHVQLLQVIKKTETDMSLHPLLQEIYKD
Assay: Lanthascreen PPARG competitive binding assay (Invitrogen)
Conditions: Table 3
Description: Lanthascreen PPARG Competitive Binding Assay (Invitrogen)
The assay was performed according to manufacturer protocol. A mixture of 5 nM GST-PPARG-LBD, 5 nM Tb-GST-antibody, 5 nM Fluormone Pan-PPAR Green, and serial dilutions of the experimental compound, beginning at 10 μM downwards, was added to wells of black 384-well low-volume plates (Greiner) to a total volume of 18 μL. All dilutions were made in TR-FRET assay buffer C. DMSO at 2% final concentration was used as a no-ligand control. Experiment was performed in triplicate, and incubated for 2 hours in the dark prior to assay read in Perkin Elmer ViewLux ultra HTS microplate reader. FRET signal was measured by excitation at 340 nm and emission at 520 nm for fluorescein and 490 nm for terbium. Fold change over DMSO was calculated using GraphPad Prism Software (La Jolla, Calif.) by calculating 520 nm/490 nm ratio. Graphs were plotted as fold change of FRET signal for compound treatment over DMSO-only control.

Row | IC50 (nM) Lantha [nM] | SMILES
3 | 1e+08 | Cc1nc2cc(C(=O)N[C@@H](C)c3cccc(Br)c3)ccc2n1Cc1cccc(O[C@H](C)C(=O)O)c1 [Cpd 21]

Same assay, conditions: Table 3; read-out: IC50 (nM) Lantha

Row | SMILES | IC50 [nM]
4 | O=C(NCC[C@H]1CCO1)c1ccc2c(c1)ncn2Cc1ccc(Cl)cc1 [Cpd 26] | 6770
5 | C[C@H](NC(=O)c1ccc2c(c1)ncn2Cc1ccc(Cl)cc1)c1ccc(Br)cc1 [Cpd 16] | 2380
6 | COC[C@H](C)NC(=O)c1ccc2c(c1)ncn2Cc1ccc(Cl)cc1 [Cpd 25] | 5220
7 | CC(C)[C@@H](CO)NC(=O)c1ccc2c(c1)ncn2Cc1ccc(Cl)cc1 [Cpd 40] | 3250
8 | CC(C)c1cccc([C@H](C)NC(=O)c2ccc3c(c2)ncn3[C@@H](C)c2ccc(Cl)cc2)c1 [Cpd 15] | 2520
9 | C[C@@H](CO)NC(=O)c1ccc2c(c1)ncn2Cc1ccc(Cl)cc1 [Cpd 46] | 24400
10 | O=C(NCC1CC1)c1ccc2c(c1)ncn2Cc1ccc(Cl)cc1 [Cpd 20] | 18300
11 | CCOCCNC(=O)c1ccc2c(c1)ncn2Cc1ccc(Cl)cc1 [Cpd 23] | 3710
12 | CC(C)c1cccc([C@H](C)NC(=O)c2ccc3c(c2)ncn3[C@H](C)c2ccc(Cl)cc2)c1 [Cpd 41] | 11000
13 | C[C@@H](CC1CCOCC1)NC(=O)c1ccc2c(c1)ncn2Cc1ccc(Cl)cc1 [Cpd 19] | 2100
14 | CC(C)CC(C)NC(=O)c1ccc2c(c1)ncn2[C@H](C)c1ccc(Cl)cc1 (stereo partly drawn) [Cpd 47] | 8400
15 | COCCCNC(=O)c1ccc2c(c1)ncn2Cc1ccc(Cl)cc1 [Cpd 22] | 7330
16 | CCCc1nc2cc(C(=O)N[C@@H](C)c3cccc(C(C)C)c3)ccc2n1Cc1cccc(O[C@@H](C)C(=O)O)c1 [Cpd 35] | 2410
17 | COC(=O)[C@H](C)NC(=O)c1ccc2c(c1)ncn2Cc1ccc(Cl)cc1 [Cpd 38] | 2160
18 | COCCNC(=O)c1ccc2c(c1)ncn2Cc1ccc(Cl)cc1 [Cpd 24] | 6360
19 | O=C(NCC1CCC1)c1ccc2c(c1)ncn2Cc1ccc(Cl)cc1 [Cpd 29] | 7950
20 | Cc1nc2cc(C(=O)N[C@@H](C)c3cccc(C(C)C)c3)ccc2n1Cc1cccc(O[C@@H](C)C(=O)O)c1 [Cpd 33] | 2420
21 | CC(C)c1cccc([C@H](C)NC(=O)c2ccc3c(c2)ncn3Cc2ccc(Cl)cc2)c1 [Cpd 17] | 4400
22 | CC(C)c1cccc([C@H](C)NC(=O)c2ccc3c(c2)ncn3Cc2ccc(Cl)nc2)c1 [Cpd 49] | 2050
23 | COCCOCc1ccc2c(c1)ncn2Cc1ccc(Cl)cc1 [Cpd 36] | 13700

Other lines, results leading:

Row | IC50 [nM] | SMILES
24 | 2030 | CCc1nc2cc(C(=O)N[C@@H](C)c3cccc(C(C)C)c3)ccc2n1Cc1cccc(O[C@@H](C)C(=O)O)c1 [Cpd 32]
25 | 1420 | CCCCNC(=O)c1ccc2c(c1)ncn2Cc1ccc(Cl)cc1 [Cpd 28]
26 | 1260 | CC(C)CCC(C)NC(=O)c1ccc2c(c1)ncn2[C@H](C)c1ccc(Cl)cc1 (stereo partly drawn) [Cpd 48]
27 | 1090 | CC(C)CCNC(=O)c1ccc2c(c1)ncn2Cc1ccc(Cl)cc1 [Cpd 34]
28 | 1050 | CC[C@@H](NC(=O)c1ccc2c(c1)ncn2Cc1ccc(Cl)cc1)c1ccccc1 [Cpd 51]
29 | 921 | O=C(N[C@H](CO)c1ccccc1)c1ccc2c(c1)ncn2Cc1ccc(Cl)cc1 [Cpd 42]
30 | 612 | COC[C@@H](NC(=O)c1ccc2c(c1)ncn2Cc1ccc(Cl)cc1)C(C)C [Cpd 39]
31 | 403 | CC[C@H](NC(=O)c1ccc2c(c1)ncn2Cc1ccc(Cl)cc1)c1ccccc1 [Cpd 52]
32 | 237 | COC(=O)[C@@H](NC(=O)c1ccc2c(c1)ncn2Cc1ccc(Cl)cc1)c1ccccc1 [Cpd 43]
33 | 162 | CC(C)c1cccc([C@@H](C)NC(=O)c2ccc3c(c2)ncn3Cc2ccc(Cl)cc2)c1 [Cpd 50]
34 | 42.3 | CC(C)CCC(C)NC(=O)c1ccc2c(c1)ncn2Cc1ccc(Cl)cc1 (stereo not drawn) [Cpd 30]
35 | 31.8 | CC(C)CC(C)NC(=O)c1ccc2c(c1)ncn2Cc1ccc(Cl)cc1 (stereo not drawn) [Cpd 31]

Target: T2, PPARG (Homo sapiens, UniProt P37231)
T2 construct: own inference from the column head
T2 sequence (P37231 1-505): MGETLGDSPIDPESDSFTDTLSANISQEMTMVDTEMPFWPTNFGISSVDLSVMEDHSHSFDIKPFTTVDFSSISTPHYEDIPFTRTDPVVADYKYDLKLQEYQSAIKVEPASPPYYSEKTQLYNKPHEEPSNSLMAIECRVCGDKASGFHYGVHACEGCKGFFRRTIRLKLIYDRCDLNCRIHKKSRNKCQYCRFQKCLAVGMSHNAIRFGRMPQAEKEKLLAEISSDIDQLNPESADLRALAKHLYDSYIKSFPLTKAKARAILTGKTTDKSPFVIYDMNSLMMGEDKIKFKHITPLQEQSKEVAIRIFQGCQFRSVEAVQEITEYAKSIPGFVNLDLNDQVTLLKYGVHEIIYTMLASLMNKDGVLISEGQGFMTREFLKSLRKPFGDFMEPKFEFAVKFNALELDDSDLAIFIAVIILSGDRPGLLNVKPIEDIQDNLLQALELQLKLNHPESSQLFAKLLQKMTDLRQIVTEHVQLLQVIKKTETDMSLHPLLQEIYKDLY
Assay: Gal4 transactivation assay
Assay type: cell-based
Conditions: Table 3

Row | EC50 [nM] | SMILES
36 | 99.3 | CC[C@H](NC(=O)c1ccc2c(c1)ncn2Cc1ccc(Cl)cc1)c1ccccc1 [Cpd 52]
37 | 3910 | CC[C@@H](NC(=O)c1ccc2c(c1)ncn2Cc1ccc(Cl)cc1)c1ccccc1 [Cpd 51]
38 | 752 | COC(=O)[C@@H](NC(=O)c1ccc2c(c1)ncn2Cc1ccc(Cl)cc1)c1ccccc1 [Cpd 43]
39 | 44.1 | CC(C)c1cccc([C@@H](C)NC(=O)c2ccc3c(c2)ncn3Cc2ccc(Cl)cc2)c1 [Cpd 50]
40 | 442 | COC[C@@H](NC(=O)c1ccc2c(c1)ncn2Cc1ccc(Cl)cc1)C(C)C [Cpd 39]
41 | 636 | CC(C)CCC(C)NC(=O)c1ccc2c(c1)ncn2Cc1ccc(Cl)cc1 (stereo not drawn) [Cpd 30]
42 | 12200 | CC(C)CC(C)NC(=O)c1ccc2c(c1)ncn2Cc1ccc(Cl)cc1 (stereo not drawn) [Cpd 31]

Same assay, conditions: Table 3; 1 μM

Row | GL4 % act 1 μM [%] | SMILES
43 | 30.41 | CC[C@H](NC(=O)c1ccc2c(c1)ncn2Cc1ccc(Cl)cc1)c1ccccc1 [Cpd 52]
44 | 76.12 | CC[C@@H](NC(=O)c1ccc2c(c1)ncn2Cc1ccc(Cl)cc1)c1ccccc1 [Cpd 51]
45 | 51.21 | COC(=O)[C@@H](NC(=O)c1ccc2c(c1)ncn2Cc1ccc(Cl)cc1)c1ccccc1 [Cpd 43]
46 | 54.52 | CC(C)c1cccc([C@@H](C)NC(=O)c2ccc3c(c2)ncn3Cc2ccc(Cl)cc2)c1 [Cpd 50]
47 | 62.18 | COC[C@@H](NC(=O)c1ccc2c(c1)ncn2Cc1ccc(Cl)cc1)C(C)C [Cpd 39]
48 | 96.37 | CC(C)CCC(C)NC(=O)c1ccc2c(c1)ncn2Cc1ccc(Cl)cc1 (stereo not drawn) [Cpd 30]
49 | 34.29 | CC(C)CC(C)NC(=O)c1ccc2c(c1)ncn2Cc1ccc(Cl)cc1 (stereo not drawn) [Cpd 31]

Same assay, conditions: Table 3; 10 μM

Row | GL4 % act 10 μM [%] | SMILES
50 | 109.37 | CC(C)CCC(C)NC(=O)c1ccc2c(c1)ncn2Cc1ccc(Cl)cc1 (stereo not drawn) [Cpd 30]
51 | 68.66 | CC(C)CC(C)NC(=O)c1ccc2c(c1)ncn2Cc1ccc(Cl)cc1 (stereo not drawn) [Cpd 31]
